Species on record: Rattus norvegicus
Test: Open TG-GATES - Regimen: Daily Repeat
Type: toxicity, organism-based, Sprague-Dawley
Parameters: regimen Daily Repeat, gender Male, age 6 weeks
Settings: in vivo, po, 30 mg/kg, route gavage, dose level Low; for APTT / Bas / Eos / Fbg / Hb / Ht / Lym / MCH / MCHC / MCV / Mono / Neu / PT / Plat / RBC / Ret / WBC: tissue Blood; for KIDNEY_L / KIDNEY_R / KIDNEY_TOTAL: tissue Kidney; for LIVER: tissue Liver; for A/G / ALP / ALT / AST / BUN / CRE / Ca / Cl / DBIL / GLC / IP / K / LDH / Na / PL / RALB / TBIL / TC / TG / TP / gamma-GTP: tissue Plasma

## CCCNC(=O)NS(=O)(=O)c1ccc(Cl)cc1 [CHLORPROPAMIDE]
72 h, time 3 day
  TERMINAL_BW: 215.3 g
  APTT: 21.2 s
  Bas: 0%
  Eos: 1.2%
  Fbg: 265 mg/dL
  Hb: 13.2 g/dL
  Ht: 39.6%
  Lym: 80.6%
  MCH: 21.1 pg
  MCHC: 33.2%
  MCV: 63.3 fL
  Mono: 2.4%
  Neu: 15%
  PT: 15.8 s
  Plat: 116.1 x10_4/uL
  RBC: 626 x10_4/ul
  Ret: 7%
  WBC: 83.4 x10_2/uL
  KIDNEY_L: 0.9 g
  KIDNEY_R: 0.9 g
  KIDNEY_TOTAL: 1.8 g
  LIVER: 10.1 g
  A/G: 0.9
  ALP: 1696 IU/L
  ALT: 49.6 IU/L
  AST: 73.2 IU/L
  BUN: 17.8 mg/dL
  CRE: 0.2 mg/dL
  Ca: 10.6 mg/dL
  Cl: 106 meq/L
  DBIL: 0.01 mg/dL
  GLC: 174 mg/dL
  IP: 7.5 mg/dL
  K: 4.1 meq/L
  LDH: 80.8 IU/L
  Na: 143.2 meq/L
  PL: 151 mg/dL
  RALB: 2.6 g/dL
  TBIL: 0.024 mg/dL
  TC: 78.8 mg/dL
  TG: 108 mg/dL
  TP: 5.7 g/dL
  gamma-GTP: 1 IU/L
[…], time 7 day
  TERMINAL_BW: 245.8 g
  APTT: 19.1 s
  Bas: 0%
  Eos: 1%
  Fbg: 284.8 mg/dL
  Hb: 13.7 g/dL
  Ht: 41.3%
  Lym: 79.6%
  MCH: 21.3 pg
  MCHC: 33.2%
  MCV: 64.2 fL
  Mono: 1.8%
  Neu: 16.2%
  PT: 15.5 s
  Plat: 127.7 x10_4/uL
  RBC: 643 x10_4/ul
  Ret: 5.9%
  WBC: 95.2 x10_2/uL
  KIDNEY_L: 1 g
  KIDNEY_R: 1 g
  KIDNEY_TOTAL: 2 g
  LIVER: 11.3 g
  A/G: 0.8
  ALP: 1568.6 IU/L
  ALT: 42 IU/L
  AST: 66.8 IU/L
  BUN: 16.2 mg/dL
  CRE: 0.2 mg/dL
  Ca: 10.9 mg/dL
  Cl: 105.6 meq/L
  DBIL: 0.018 mg/dL
  GLC: 182.8 mg/dL
  IP: 7.4 mg/dL
  K: 3.9 meq/L
  LDH: 93.8 IU/L
  Na: 143.4 meq/L
  PL: 157.6 mg/dL
  RALB: 2.7 g/dL
  TBIL: 0.032 mg/dL
  TC: 76.4 mg/dL
  TG: 136.6 mg/dL
  TP: 5.8 g/dL
  gamma-GTP: 1 IU/L
[…], time 14 day
  TERMINAL_BW: 303 g
  APTT: 16.7 s
  Bas: 0%
  Eos: 0.8%
  Fbg: 263 mg/dL
  Hb: 14.3 g/dL
  Ht: 43.2%
  Lym: 79.6%
  MCH: 20.8 pg
  MCHC: 33.2%
  MCV: 62.7 fL
  Mono: 2.6%
  Neu: 15.6%
  PT: 16.1 s
  Plat: 107.2 x10_4/uL
  RBC: 688.6 x10_4/ul
  Ret: 4.6%
  WBC: 100.6 x10_2/uL
  KIDNEY_L: 1.2 g
  KIDNEY_R: 1.2 g
  KIDNEY_TOTAL: 2.4 g
  LIVER: 13.3 g
  A/G: 0.8
  ALP: 1602.6 IU/L
  ALT: 41.8 IU/L
  AST: 66.6 IU/L
  BUN: 18.6 mg/dL
  CRE: 0.2 mg/dL
  Ca: 10.6 mg/dL
  Cl: 103.6 meq/L
  DBIL: 0.012 mg/dL
  GLC: 204.8 mg/dL
  IP: 7.7 mg/dL
  K: 4 meq/L
  LDH: 123.6 IU/L
  Na: 142.6 meq/L
  PL: 155 mg/dL
  RALB: 2.6 g/dL
  TBIL: 0.028 mg/dL
  TC: 74.4 mg/dL
  TG: 143.8 mg/dL
  TP: 5.8 g/dL
  gamma-GTP: 0.8 IU/L
[…], time 28 day
  TERMINAL_BW: 389 g
  APTT: 18.8 s
  Bas: 0%
  Eos: 1%
  Fbg: 296.4 mg/dL
  Hb: 14.9 g/dL
  Ht: 45.1%
  Lym: 78.8%
  MCH: 19.4 pg
  MCHC: 33%
  MCV: 58.9 fL
  Mono: 2.8%
  Neu: 16.2%
  PT: 16 s
  Plat: 106.6 x10_4/uL
  RBC: 766.6 x10_4/ul
  Ret: 2.5%
  WBC: 98 x10_2/uL
  KIDNEY_L: 1.4 g
  KIDNEY_R: 1.4 g
  KIDNEY_TOTAL: 2.8 g
  LIVER: 16.1 g
  A/G: 0.8
  ALP: 1184 IU/L
  ALT: 39 IU/L
  AST: 64.8 IU/L
  BUN: 18.2 mg/dL
  CRE: 0.2 mg/dL
  Ca: 10.8 mg/dL
  Cl: 104.8 meq/L
  DBIL: 0.01 mg/dL
  GLC: 198.4 mg/dL
  IP: 6.7 mg/dL
  K: 3.6 meq/L
  LDH: 99.8 IU/L
  Na: 144.8 meq/L
  PL: 163.8 mg/dL
  RALB: 2.8 g/dL
  TBIL: 0.018 mg/dL
  TC: 77.8 mg/dL
  TG: 165.6 mg/dL
  TP: 6.2 g/dL
  gamma-GTP: 1.6 IU/L

Source: ChEMBL document CHEMBL3885861, “Open TG-GATES”
